# Counter-ions that a name gives are not always drawn. Like-named read-outs stand apart in the source and are kept apart here.
# Experiments:
# [1] = Caco-2 cell membrane permeability assay; details: human, Caco-2
# Procedure: (§3) Day 0 plated: After digesting the target cells in the logarithmic growth phase, make a single cell suspension and count. • 2). Took out the corresponding number of transwell chambers and placed them in a 24-well plate, added 200 μL PBS to the upper chamber, incubated for 10 mins, and removed the PBS from the upper chamber by pipette. • 3). According to the count, took an appropriate amount of cell suspension and resuspended it to 5000 cells/200 μL, mixed well and added it to the upper chamber of the transwell, and added 600 μL of complete culture medium to the lower chamber. • 4). medium exchanged on DAY1: The upper chamber and the lower chamber were exchanged with complete culture medium containing 0.1 mg/mL ascorbic acid for 9 days continuously, and the resistance value of membrane expansion was measured. […] Collected the liquid in the upper chamber and the lower chamber for detection. • 7). Calculated Papp according to the formula “Papp=dQ/(dt×A×C0)”. dQ/dt was the transport amount of drugs per unit time, which was the slope of the linear regression of cumulative drug release amount Q versus time t. A was the bottom area of the Transwell orifice plate membrane, and the bottom area was 0.33 cm^2 of 24-well plate in this experiment. Co was the initial concentration of drugs in the upper chamber (μg mL-1).
# [2] = system: MCF-7 cells (human breast cancer cells); experiment: MCF-7 cell proliferation inhibitory assay (CellTiter-Glo); format: cell-based
# Procedure: • 1). […] Resuspend an appropriate amount of cell suspension to 4000 cells/100 μL according to the count, mixed well and then put the corresponding number of cells into a 96-well plate by pipette. • 3). Each hole of the edge was sealed with 100 μL DPBS and put into an incubator for culture. • 4). Day 1 drug addition: Prepare the storage solution of the compound to be tested 1 hour in advance. 24 h after plating, the culture medium was gradiently diluted to a concentration twice the final concentration of each group. Take out the plated cells from the incubator and add 100 μL of the corresponding 2-fold concentration medium to each well by pipette.
# Day 1 detected: Take out the plate to be tested and an appropriate amount of CTG in advance and rewarm it at room temperature in the dark. 50 μL of CTG was added to each well at 24 h. Shake with the oscillator for 5 minutes, and after balancing in the dark for 5 minutes, detect the luminescence value with a microplate reader; The mixture was shaken for 5 min, and after equilibration in the dark for 5 min, the luminescence value was detected with ELISA. • 6). Day 4 detection: Take an appropriate amount of CTG 1 h in advance and rewarm it at room temperature in the dark. At the same time, take out the plate to be tested from the incubator and leave it to equilibrate at room temperature for 30 minutes; 72 h after adding the drug, 100 μL of culture medium was sucked out with pipette carefully from each cell well, and 50 μL of CTG was added. The mixture was shaken for 5 min, and after equilibration in the dark for 5 min, the luminescence value was detected with ELISA analyzer. • 7). Data analysis and processed.
# Collect data and convert it into survival rate: Inhibition rate (%)=(100−(OD value of compound-OD value on the first day)/(OD value of control well-OD value on the first day))×100%
# (§1) Input the compound into graphpad prism to obtain the corresponding IC50 value.
# [3] = system: MDA-MB-231 cells (human breast cancer cells); experiment: MDA-MB-231 cell proliferation inhibitory assay (CellTiter-Glo); format: cell-based
# Procedure: (§2) • 1). […] Resuspend an appropriate amount of cell suspension to 3000 cells/100 μL according to the count, mixed well and then put the corresponding number of cells into a 96-well plate by pipette. • 3). Each hole of the edge was sealed with 100 μL DPBS and put into an incubator for culture. • 4). Day 1 drug addition: Prepare the storage solution of the compound to be tested 1 hour in advance. 24 h after plating, the culture medium was gradiently diluted to a concentration twice the final concentration of each group. Take out the plated cells from the incubator and add 100 μL of the corresponding 2-fold concentration medium to each well by pipette. • 5). Day 1 detected: Take out an appropriate amount of CTG 1 h in advance and the plate was allowed to equilibrate at room temperature for 30 min. 100 μL of CTG was added to each well and shaken for 5 mins, and then standed in the dark for 5 mins, the luminescence value was detected by ELISA. • 6). Day 4 detection: Take an appropriate amount of CTG 1 h in advance and rewarm it at room temperature in the dark. At the same time, take out the plate to be tested from the incubator and leave it to equilibrate at room temperature for 30 minutes; 72 h after adding the drug, 100 μL of culture medium was sucked out with pipette carefully from each cell well, and 100 μL of CTG was added. The mixture was shaken for 5 min, and after equilibration in the dark for 5 min, the luminescence value was detected with ELISA. • 7). Analyze data and write detailed experimental records.
# as §1
# [4] = system: MDA-MB-435s cells (human melanoma cells); experiment: MDA-MB-435s cell proliferation inhibitory assay (CellTiter-Glo); format: cell-based
# Procedure: as §2
# Collect data and convert it into survival rate: Inhibition rate (%)=(100−(OD value of compound−OD value on the first day)/(OD value of control well-OD value on the first day))×100%
# as §1
# [5] = system: Caco-2 cells (human colorectal adenocarcinoma cells)
# Procedure: as §3
# in vitro = details: human, Caco-2
# Procedure: as §3
# [6] = system: Caco-2 cells (human colorectal adenocarcinoma cells); experiment: Caco-2 cell membrane permeability assay; details: Caco-2 monolayer, apical to basolateral, 100 μg/mL, 180 min
# Procedure: as §3
# [7] = Homo sapiens, MCF7, 72 h, read-out: Proliferation inhibition IC50
# [8] = Homo sapiens, MDA-MB-231, 72 h, read-out: Proliferation inhibition IC50
# [9] = Homo sapiens, MDA-MB-435S, 72 h, read-out: Proliferation inhibition IC50
Structure (SMILES),"Papp A→B at 180 min, 100 μg/mL [1] [×10⁻⁶ cm/s]","IC50 [2, 7] [nM]","IC50 [3, 8] [nM]","IC50 [4, 9] [nM]","Papp A→B at 180 min, 100 μg/mL (in vitro) [×10⁻⁶ cm/s]",other results
"CC[C@@]1(O)C(=O)OCc2c1cc1n(c2=O)Cc2c-1nc1cc(F)c(C)c3c1c2[C@@H](N)CC3 [Compound B, Exatecan, reference compound]",68.6,5.5,30.9,2.52,–,–
"CC[C@@]1(O)C(=O)OCc2c1cc1n(c2=O)Cc2c-1nc1cc(F)c(C)c3c1c2[C@@H](NC(=O)CO)CC3 [Dxd, reference compound]",42,20.3,101,5.12,–,–
CC[C@@]1(O)C(=O)OCc2c1cc1n(c2=O)Cc2c-1nc1cc(F)c(C)cc1c2[C@@H](C)N [Example 1],–,5.2,8.2,0.75,100,"Permeability compared with reference compounds (in words) [5]: obvious advantages over SN38 and exatecan; IC50 ([2]; Homo sapiens, MCF7, read-out: MCF-7 Proliferation inhibition IC50): 5.2 nM; IC50 ([3]; Homo sapiens, MDA-MB-231, read-out: MDA-MB-231 Proliferation inhibition IC50): 8.2 nM; IC50 ([4]; Homo sapiens, MDA-MB-435S, read-out: MDA-MB-435s Proliferation inhibition IC50): 0.75 nM"
CC[C@@]1(O)C(=O)OCc2c1cc1n(c2=O)Cc2c-1nc1cc(F)c(C)cc1c2[C@H](C)O [Example 12c],–,3.5,6.6,0.7,96,Permeability compared with reference compounds (in words) [5]: obvious advantages over SN38 and exatecan
CC[C@@]1(O)C(=O)OCc2c1cc1n(c2=O)Cc2c-1nc1cc(F)c(C)cc1c2[C@@H](C)NC(=O)CO [Example 13b],–,–,130,3.9,56.1,"IC50 ([2]; Homo sapiens, MCF7, MCF-7 cells, 72 h after adding the drug, Table 1, read-out: Proliferation inhibition IC50): 25.6 nM"
COCCc1ccc(OCC(O)CNC(C)C)cc1 (stereo not drawn) [Metoprolol Tartrate],193,–,–,–,–,–
"CCc1c2c(nc3ccc(O)cc13)-c1cc3c(c(=O)n1C2)COC(=O)[C@]3(O)CC [SN38, reference compound]",–,–,–,–,–,"Permeability Coefficient (Papp 10^−6 cm/s) A→B [6]: 46.8 10^−6 cm/s; IC50 ([2]; MCF-7 cells, 72 h after adding the drug, Table 1, read-out: Proliferation inhibition IC50): 22.5 nM; IC50 ([3]; MDA-MB-231 cells, 72 h after adding the drug, Table 2, read-out: Proliferation inhibition IC50): 124 nM; IC50 ([4]; MDA-MB-435s cells, 72 h after adding the drug, Table 3, read-out: Proliferation inhibition IC50): 6.89 nM"

# — patent publication US20240376120A1, “CAMPTOTHECIN COMPOUND, PREPARATION METHOD THEREFOR AND USE THEREOF” (priority 2021, published 2024)
